# Measurements reported in patent US9133225B2, “Dual targeting anticancer agents” (priority 2013, dated 2015).
# Key:
# Bcl-xL = experiment: Immunoblotting analysis of Bcl-xL expression; format: cell-based; conditions: A549 cells
# Method: (§1) α-TOS is known to disrupt Bcl-xL-Bax interactions, activate Bax, and thus mediate mitochondrial centered apoptotic cell death. Co-immunoprecipitation studies were carried out to determine whether the Pt(IV)-α-TOS conjugates could behave in a similar manner. […] Additional immunoblotting studies were carried to determine the effect of Pt(IV)(α-TOS)(OEt) treatment on transcription. […] Overall Pt(IV)(α-TOS)(OEt) was able to (1) downregulate Bcl-xL expression and (2) inhibit the interaction of Bcl-xL with Bax, a prerequisite for mitochondrial dysfunction. The former is inherent to cisplatin but not α-TOS, and the latter was inherent to α-TOS but not cisplatin.
# A549 cells (5×10^5 cells) were incubated with test compound for 48 h at 37° C. Cells were washed with PBS, scraped into SDS-PAGE loading buffer (64 mM Tris-HCl (pH6.8)/9.6% glycerol/2% SDS/5% β-mercaptoethanol/0.01% Bromophenol Blue) and incubated at 95° C. for 10 min. Whole cell lysates were resolved by 4-20% sodium dodecylsulphate polyacylamide gel electrophoresis (SDS-PAGE; 200 V for 1 h) followed by electro transfer to polyvinylidene difluoride membrane, PVDF (350 mA for 1 h). Membranes were blocked in 5% (w/v) non-fat milk in PBST (PBS/0.1% Tween 20) and incubated with the appropriate primary antibodies (Cell Signalling Technology and Santa Cruz). After incubation with horseradish peroxidase-conjugated secondary antibodies (Cell Signalling Technology), immune complexes were detected with the ECL detection reagent (BioRad) and analysed using an Alpha Innotech ChemiImager™ 5500 fitted with a chemiluminescence filter.
# all cell lines = experiment: MTT cytotoxicity assay, across the cell lines; format: cell-based; conditions: non-tumorigenic lung fibroblast cells (MRC-5) vs ovarian carcinoma cells (A2780)
# Excerpt: (§2) (a) Dulbecco's Modified Eagle Medium (DMEM), Dulbecco's phosphate buffered saline (DPBS), fetal bovine serum (FBS) and 0.25% trypsin/EDTA solutions were purchased from Cellgro (Manassas, Va.). Penicillin-streptomycin solutions were purchased from Mediatech (Manassas, Va.). (b) HeLa (CCL-2TM) cells, A549, A2870, A2870/CP70, MCF-7, PC-3, and MRC-5 cells were purchased from American Type Culture Collection (ATCC, Manassas, Va., USA). (c) HCT116 cells were kindly donated by Laura Trudel (MIT). HeLa, A549, MCF-7, and MRC-5 cells were cultured using DMEM supplemented with 10% FBS and 1% penicillin-streptomycin. A2870, A2870/CP70, and PC-3 cells were cultured in RPMI supplemented with 10% FBS and 1% penicillin-streptomycin. HCT116 cells were cultured in McCoy's supplemented with 10% FBS and 1% penicillin-streptomycin. All cell-culture experiments were performed in the aforementioned media in an incubator operating at 37° C. and in the presence of a humidified atmosphere containing 5.0% CO2. Cells were harvested using a 0.25% trypsin/EDTA solution.
# The cytotoxicity of the compounds was assessed by means of the MTT assay (MTT=3-(4,5-dimethyl-2-thiazolyl)-2,5-diphenyl-2H-tetrazolium bromide). Typically, on day one, ˜1×10^3 cells were seeded into 96-well plates in 100 μL media per well. […] The optical density for each well at 550 nm was measured with a microplate reader.
# Bcl-xL-Bax interactions = molecular target: T1, Bcl-xL-Bax interactions (Homo sapiens, UniProt Q07817); experiment: Co-immunoprecipitation of Bcl-xL, probed for Bax; format: cell-based; conditions: A549 cells, respective IC50 values, 48 h
# T1 construct: endogenous in cells; host or cells: A549
# T1 sequence (Q07817 whole entry): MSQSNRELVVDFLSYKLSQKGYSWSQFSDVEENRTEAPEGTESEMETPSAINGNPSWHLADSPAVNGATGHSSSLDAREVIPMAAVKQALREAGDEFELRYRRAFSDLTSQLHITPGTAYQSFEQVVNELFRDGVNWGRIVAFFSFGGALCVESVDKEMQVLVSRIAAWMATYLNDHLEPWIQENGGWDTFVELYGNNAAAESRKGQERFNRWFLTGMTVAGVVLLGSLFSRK
# Method: as §1
# A549 cells (5×10^5 cells) were incubated with test compound for 48 h at 37° C. […] The resultant cell lysate was treated with protein A-agarose bead slurry (50 μL) and centrifuged to remove proteins that bind non-specifically. Anti Bcl-XL antibody (Cell Signalling Technology) was added to the lysate and incubated for 2 h at room temperature. Protein A-agarose bead slurry (50 μL) was added and the mixture was incubated at 4° C. overnight. Centrifugation allowed separation of the immunocomplex, which was washed with cold RIPA buffer (3×500 μL). The immunocomplex was then suspended in SDS-PAGE loading buffer (50 μL) and incubated at 95° C. for 10 min. The solution containing the immunocomplex was isolated by centrifugation and then analysed for Bax content using the immunoblotting analysis protocol described above.
# [1] = system: A2780 ovarian cancer cells; experiment: PI-annexin-V dual staining apoptosis assay; format: cell-based; conditions: 4 μM for 48 h
# MCF-7 cells = experiment: MTT cytotoxicity assay, MCF-7; conditions: read-out: cytotoxicity IC50; MCF-7, breast; MTT, 48 h treatment; spread in brackets
# Excerpt: as §2
# (§3) The cytotoxicity of the compounds was assessed by means of the MTT assay (MTT=3-(4,5-dimethyl-2-thiazolyl)-2,5-diphenyl-2H-tetrazolium bromide). Typically, on day one, ˜1×10^3 cells were seeded into 96-well plates in 100 μL media per well. The last row of the plate was left empty as a control for background absorption. The cells were allowed to grow for 24 h in the incubator at 37° C. On day two, a series of drug dilutions in growth media were prepared immediately prior to cell treatment. The media in the wells of the 96 plates were replaced with 100 μL of growth media containing appropriate drug concentrations. The cells were treated for 48 h at 37° C. in the incubator. On day four, a stock solution of MTT (5 mg/mL in PBS buffer) was diluted with media so that, when 100 μL of the media was added to each well, 10 μL of MTT stock was applied. […] The optical density for each well at 550 nm was measured with a microplate reader.
# PC-3 cells = experiment: MTT cytotoxicity assay, PC-3; conditions: read-out: cytotoxicity IC50; PC-3, prostate; MTT, 48 h treatment; spread in brackets
# Excerpt: as §2, §3
smiles,measurement,setting,value
CC[O][Pt]([NH2])([NH2])([Cl])([Cl])[O]C(=O)CCC(=O)Oc1c(C)c(C)c2c(c1C)CCC(C)(CCCC(C)CCCC(C)CCCC(C)C)O2 (stereo not drawn) [Pt(IV)(α-TOS)(OEt)],Bcl-xL expression,Bcl-xL,induced a reduction in Bcl-xL expression
same,reduction in toxicity for MRC-5 compared to A2780,all cell lines,265 fold
same,Bcl-xL-Bax interaction (Bax associated to the Bcl-xL immunoprecipitate),Bcl-xL-Bax interactions,reduced Bcl-xL-Bax interactions
same,cell population with characteristics of early apoptosis,[1],28%
same,IC50,MCF-7 cells,5.9 µM
same,IC50,PC-3 cells,2.5 µM
